In patent US20070232690A1, “Composition for inducing differentiation of leukemic cells and application thereof” (Mackay Memorial Hospital, priority 2006, published 2007):
≈ marks a conversion by molar mass, not a printed value. Marks after values point to notes of the source that are not given here.

Experiments:
Assay type in all cases: cell-based, human
[1] = tested on: HL-60 cells; assay: Assay for cell growth inhibition (Trypan blue dye exclusion); conditions: for inhibition at 5 µg/mL: 5 μg/ml
Text: The human myeloid leukemic cell line HL-60 is known to be induced by several biological agents or chemical drugs to differentiate into mature cells. The results of differentiation can be cell morphological changes, cell chemical changes or functionally mature changes. Therefore, HL-60 cells were often applied in many differentiation studies of leukemic cells. The present invention used the human myeloid leukemic cell line HL-60 (ATCC, Manassas, Va.) to study the cell differentiation inducting ability of 278E.
The HL-60 cells were cultured in RPMI 1640 medium containing 10% fetal bovine serum and maintained in an exponential growth state. For assay of cytotoxicity, cells were incubated at an initial concentration of 1×10^5 cells/ml in the presence of various concentrations of 278E compounds (1-6 μg/ml) for 1-5 days.

[2] = tested on: HL-60 cells; assay: Maturation profiles (morphology, Wright's stain)
Experimental: After 5 days of treatments (1-5 μg/ml of 278E) as described in Example 1, HL-60 cells were collected and cytocentrifuged onto a microscope slide using a Cytospin, stained with Wright's stain and observed under an inverted microscope (Olympus) with a magnification of 1000×. Based on morphology, the cells were classified as: (1) immature blasts, (2) intermediates, or (3) mature monocytes or macrophages, and the ratio was counted respectively.

[3] = tested on: HL-60 cells; assay: Assay for superoxide production (NBT reduction); conditions: 5 days
Experimental: It has been known that immature blast cells had little superoxide production. The differentiation of cells is further evidenced in changes of superoxide production. Cells collected from example 1 after treatment with 278E for 5 days were collected and resuspended in RPMI 1640 medium at a concentration of 1×10^6 cells/ml and incubated for 30 min at 37° C. with an equal volume of nitroblue tetrazolium test stock solution [containing 2 mg of NBT and 1 μM of phorbol myristate acetate per ml of phosphate buffered saline]. Cells were collected and cytocentrifuged onto a microscope slide using cytospin. Cytospin preparations were counter-stained with 0.5% safranin O. The percentage of formazan-containing cells (based on counting 200 cells) was assessed microscopically.

[4] = tested on: HL-60 cells; assay: Assay for differentiation antigens (indirect immunofluorescence, flow cytometry); conditions: day 5
Experimental: An indirect immunofluorescence method was employed in the invention to detect the expression of monocyte-associated antigens on the surface of HL-60 cells after induction of differentiation. 278E-treated cells collected from day 5 cultures were treated with primary monoclonal antibodies, washed with PBS and then exposed to a solution containing […] (FITC) conjugated secondary antibody, goat F(ab′)2 antimouse IgG (Cappel, Cochranville, Pa.). The aforementioned monoclonal antibodies against human monocytes included anti-CD 11b, anti-CD14 (Serotec, Oxford, UK), and anti-CD68 (Dakopatts, Glostrup, Denmark). The percentage of positive cells analyzed with a FACScan flow cytometer (Becton Dickenson, Franklin Lakes, N.J.) and Lysis II software (Becton Dickinson) is shown in Table 2.

[5] = tested on: c-myc, c-fms, c-fos and c-jun in HL-60 cells; assay: Expression of proto-oncogenes (RNA blot)
Experimental: Total RNA was isolated from HL-60 cells using an RNAzol B kit (Biotecx, Galveston, Tex.) and quantified spectrophotometrically. Total cellular RNA (20 μg) from control or 278E-treated cells was electrophoresed on a 1.2% agarose gel and transferred to a nylon membrane. The blots were probed with radiolabeled cDNA of c-myc, c-fms, c-fos and c-jun. Glyceraldehyde-3-phosphate dehydrogenase (G3PDH) was used as an internal control.

[6] = tested on: HL-60 cells; assay: Induction of monocytic differentiation by various combination treatments
[7] = tested on: HL-60 cells; assay: as above; remark: listed apart in the source
Experimental: After 5 days of treatments (1-5 μg/ml of […]) as described in Example 1, HL-60 cells were collected and cytocentrifuged onto a microscope slide using a Cytospin, stained with Wright's stain and observed under an inverted microscope (Olympus) with a magnification of 1000×. Based on morphology, the cells were classified as: […] These combination treatments included: […]

## COc1cc(-c2oc3c(OC)cc(CCCO)cc3c2CO)ccc1Oc1ccccc1 [278E]
[1]; 1 μg/ml
  effect on cell viability compared with untreated cells: minimal effect
[1]; Homo sapiens, HL-60, 72 h, day 3
  inhibition at 5 µg/mL: 85.5 ± 2.8%
[1]; Homo sapiens, HL-60, 120 h, day 5
  inhibition at 5 µg/mL: 91.7 ± 1.7%
[1]; Homo sapiens, HL-60 cells, viable cell count, 1-6 μg/ml for 1-5 days, read-out: concentration yielding 50% inhibition (IC50)
  IC50: 3.48 µg/mL (≈ 8.01 µM)
[1]; dose- and time-dependent (FIG. 1)
  growth of HL-60 cells: inhibited significantly
[2]; after 5 days of treatment (FIG. 2B)
  cell morphology: many cells exhibited changes in characteristics
[2]; after 5 days of treatment (FIG. 3), concentration not given
  percentage of mature monocyte/macrophage: 82.0±6.3%
[3]; 1 μg/ml
  NBT reduction, Positive cells (%): 0.3 ± 0.3%
[3]; 2 μg/ml
  NBT reduction, Positive cells (%): 1.8 ± 1.2%
[3]; 3 μg/ml
  NBT reduction, Positive cells (%): 9.3 ± 2.8%
[3]; 4 μg/ml
  NBT reduction, Positive cells (%): 59.0 ± 12.6 ^a %
[4]; 1 μg/ml
  Positive cells (%) CD11b: 1.8 ± 0.5%
  Positive cells (%) CD14: 1.5 ± 0.4%
  Positive cells (%) CD68: 1.4 ± 0.4%
[4]; 2 μg/ml
  Positive cells (%) CD11b: 2.6 ± 0.6%
  Positive cells (%) CD14: 2.1 ± 0.6%
  Positive cells (%) CD68: 1.8 ± 0.4%
[4]; 3 μg/ml
  Positive cells (%) CD11b: 18.1 ± 6.5 ^a %
  Positive cells (%) CD14: 5.8 ± 2.8%
  Positive cells (%) CD68: 5.6 ± 2.1%
[4]; 4 μg/ml
  Positive cells (%) CD11b: 62.1 ± 10.4 ^a %
  Positive cells (%) CD14: 47.7 ± 10.6 ^a %
  Positive cells (%) CD68: 34.5 ± 9.9 ^a %
[4]; 5 μg/ml
  Positive cells (%) CD11b: 79.6 ± 9.8 ^a %
  Positive cells (%) CD68: 53.7 ± 10.0 ^a %
[5]; 6 μg/ml, 16 hour treatment (FIG. 4A)
  expression of c-myc: markedly suppressed
[5]; after treatment (FIG. 4B)
  expression of c-fms: enhanced
[5]; after treatment (FIG. 4C)
  expression of c-jun: enhanced
[5]; after treatment (FIG. 4D)
  expression of c-fos: enhanced
[6]; 278E 6 μg/m with H7 15 μM
  monocytes/macrophages (%): 51.3 ± 5.3%
[6]; 278E 6 μg/ml alone
  monocytes/macrophages (%): 56.1 ± 6.2%
[6]; 278E 6 μg/ml with Staurosporine 10 nM
  monocytes/macrophages (%): 55.6 ± 4.7%

## CC1CNCCN1S(=O)(=O)c1cccc2cnccc12 (centres unmarked) [H7]
[7]; H7 15 μM alone
  monocytes/macrophages (%): 0%

## CN[C@@H]1C[C@H]2O[C@@](C)([C@@H]1OC)n1c3ccccc3c3c4c(c5c6ccccc6n2c5c31)C(=O)NC4 [Staurosporine]
[7]; Staurosporine 10 nM alone
  monocytes/macrophages (%): 0%

## CCCCCCCCCCCCCC(=O)O[C@@H]1[C@@H](C)[C@@]2(O)[C@@H](C=C(CO)C[C@]3(O)C(=O)C(C)=C[C@@H]23)[C@H]2C(C)(C)[C@]12OC(C)=O [TPA]
[7]; HL-60 cells, Table 3
  differentiation-inducing activity after pretreatment of PKC inhibitor H7 and staurosporine: suppressed
[7]; TPA 10 ng/ml alone
  monocytes/macrophages (%): 76.8 ± 7.2%
[7]; TPA 10 ng/ml with H7 15 μM
  monocytes/macrophages (%): 30.2 ± 4.5%
[7]; TPA 10 ng/ml with Staurosporine 10 nM
  monocytes/macrophages (%): 35.0 ± 2.3%
